In publication PMC7988117, “OMN6 a novel bioengineered peptide for the treatment of multidrug resistant Gram negative bacteria” (Scientific Reports, 2021):
Like-named read-outs stand apart in the source and are kept apart here. Ends that are not written are not given here.

Experiments:
Acinetobacter baumannii [1] = assay: VITEK 2 antimicrobial sensitivity characterization; type: cell-based; conditions: VITEK 2 system, CLSI ranges
Procedure: (§1) This experiment was conducted by Omnix Medical, by JMI Laboratories (North Liberty, IA, USA) and by Aptuit (Verona) S.r.l. (Italy), an Evotec Company. All studies were performed according to Clinical and Laboratory Standards Institute guidelines[30] for the application of the broth microdilution method. Reference strains from American Type Culture Collection (ATCC) and clinical isolates from the Evotec EvostrAIn and the JMI Laboratories SENTRY surveillance program culture collections (Acinetobacter baumannii: ACC 00445, ACC 00527, ACC 00535, ATCC 17978, ATCC 19606, ATCC BAA-1793, ACC 01076, ACC 01077, NCTC 13420, JMI #1088100 and JMI #1001007; Klebsiella pneumoniae: ATCC 43816 and ATCC BAA-1705; Escherichia coli: ACC 01001 and ATCC 25922; Staphylococcus aureus: ATCC 29213, ATCC BAA-44 and ATCC 33591; Bacillus cereus: ATCC 14579; Enterococcus faecalis: ATCC 29212; Enterococcus faecium: ATCC BAA-2319) were used. The antimicrobial activity of OMN6 was determined by 12 serial two-fold dilutions in water of the 100-fold highest compound solution; 1 µL of each well was transferred into 96 microtiter plates (final concentration: 256–0.12 µg/mL). In most strains, same procedure was used to determine the colistin antimicrobial activity (final concentration: 32–0.015 µg/mL). Bacterial strains were sub-cultured on the agar plates and incubated for 18–24 h at 35 ± 2 °C in ambient air. Following incubation, the inoculum was prepared from isolated colonies and adjusted to 0.5 McFarland turbidity standard (1 to 2 × 10^8 colony-forming units/mL) in 0.9% saline. Bacterial suspension was then diluted 1:200 in Muller-Hinton broth (from BD; Becton, Dickinson and Company, Franklin Lakes, NJ, USA) and within 15 min 100 µL/well were dispensed. Growth-control wells and sterility-check wells (uninoculated well) were present in each plate. Plates were incubated for 18–24 h at 35 ± 2 °C in ambient air. […] The antimicrobial activity to other antibiotics on most bacterial strains was determined by Evotec using the antimicrobial sensitive test from the VITEK 2 automated microbiology system (bioMérieux SA, Marcy l'Etoile, France; data presented in Table S1), or by ATCC according to CLSI (Clinical and Laboratory Standards Institute) guidelines[30]
(§2) Table S1. Supplementary information about the resistance pattern of 14 bacterial strains used in the Minimum Inhibitory Concentration study presented in Table 1. The resistance pattern of the different bacterial isolates was characterized by broth microdilution studies (for colistin) or with the VITEK 2 system (for the other antibiotics).

Escherichia coli = assay: VITEK 2 antimicrobial sensitivity characterization; type: cell-based; conditions: VITEK 2 system, CLSI ranges
Procedure: as §1, §2

Klebsiella pneumoniae = assay: VITEK 2 antimicrobial sensitivity characterization; type: cell-based; conditions: VITEK 2 system, CLSI ranges
Procedure: as §1, §2

Staphylococcus aureus = assay: VITEK 2 antimicrobial sensitivity characterization; type: cell-based; conditions: VITEK 2 system, CLSI ranges
Procedure: as §1, §2

A. baumannii BAA-1793 = conditions: determined by ATCC according to CLSI guidelines, ref ATCC; cited from earlier work
Excerpt: Supplement 41598_2021_86155_MOESM1_ESM.docx, table 3: Table S3. Supplementary information about the resistance pattern of the bacterial strain A. baumannii BAA-1793 used in the Minimum Inhibitory Concentration study presented in Table 1.

[2] = system: Acinetobacter baumannii clinical isolates; assay: Time-kill studies; type: cell-based; conditions: Difco Muller Hinton Broth
Procedure: Time-kill experiments were performed by JMI Laboratories (North Liberty, IA, USA) as described in chapter 5.14 of the Clinical Microbiology Procedures Handbook[32] and the CLSI M26-A[33] document. Two Acinetobacter baumannii clinical isolates (JMI colistin-sensitive strain #1088100 and colistin-resistant strain #1001007) were used for this study. MIC values that were determined in Difco Muller Hinton Broth (BD) for OMN6 and colistin as described above, were used as the baseline values during time-kill testing. In the time-kill experiments, OMN6 and colistin were tested in Difco Muller Hinton Broth. The time-kill cultures were sampled at 0, 2, 4, 8, and 24 h after compound addition. The number of CFU/mL in each culture was measured by plating 100 μL of serial dilutions onto blood agar plates. Colonies were counted after 48 h of growth at 35 °C. Time-kill curves were generated by plotting CFU/mL as log10 values over time. The limit of detection was 10 CFU/mL. Bactericidal activity was defined as a ≥ 99.9% reduction (i.e., a ≥ 3 log10 decrease) in the number of input bacterial cells at any arbitrary timepoint.

Acinetobacter baumannii [3] = conditions: Difco Muller Hinton Broth, data not shown
Procedure: as §1

Proteinase-K = target: T1, Proteinase-K (Parengyodontium album, UniProt P06873); assay: Peptide stability to Proteinase-K (SDS-PAGE); type: in vitro ADME; conditions: 10 µg peptide with 5 or 20 ng Proteinase-K (0.16 or 0.66 µg/mL), 2 h, 37 °C; 15% acrylamide SDS-PAGE, Coomassie stain
T1 construct: purchased Sigma-Aldrich
Procedure: 10 µg of synthetic cecropin A (Genscript, Piscataway, NJ, USA), OMN6, or bovine serum albumin (BSA; Sigma-Aldrich, St. Louis, MO, USA) were incubated with 5 or 20 ng Proteinase-K (Sigma-Aldrich; final treatment concentration of 0.16 or 0.66 µg/mL respectively) for 2 h at 37 °C, and separated on a 15% acrylamide gel (Bio-Rad, Hercules, CA, USA) by SDS-PAGE. The gel was then stained with Coomassie dye and excess color was removed over-night.

HEK293T cells = type: cell-based
Procedure: HEK-293T17 cells (ATCC CRL-1573) were purchased from ATCC and cultured to 80% confluency according to the ATCC culture method, using high-glucose and L-Glutamine Dulbecco's Modified Eagle Medium (DMEM) medium (ATCC catalog number 30-2002) supplemented with 10% fetal bovine serum and 1% Penicillin–Streptomycin solution (all from Biological Industries). For the experiment purposes, 30,000 cells were transferred to a 96-well plate (experiment plate) in a final volume of 100 µL of medium. The experiment plate was incubated at 5% CO2 and 37 °C for approximately 18 h. After 18 h, medium was discarded, and cells were co-incubated with OMN6, Melittin (Sigma-Aldrich) or dimethyl sulfoxide (DMSO; MP Biomedical LLC, Solon, OH, USA) that were prepared in new medium at desired concentrations. The experiment plate was incubated at 5% CO2 and 37 °C for 24 h. Then, glutaraldehyde at a final concentration of 0.5% was added in all wells for 10 min for cell fixation. After washing the plate 3 times with DDW, the experiment plate was dried overnight. Then, cells were washed with 0.1 M Borate buffer (pH = 8.5) for 1 min. 100 µL Methylene Blue diluted in the same Borate buffer was added to all wells for 1 h. Wells were washed with DDW and plate was dried overnight. Color extraction was executed by adding 0.1 M HCl. After an incubation at 37 °C for 1 h, cell survival was determined via absorbance at 620 nm using a microplate reader.

T1 sequence (P06873 106-384): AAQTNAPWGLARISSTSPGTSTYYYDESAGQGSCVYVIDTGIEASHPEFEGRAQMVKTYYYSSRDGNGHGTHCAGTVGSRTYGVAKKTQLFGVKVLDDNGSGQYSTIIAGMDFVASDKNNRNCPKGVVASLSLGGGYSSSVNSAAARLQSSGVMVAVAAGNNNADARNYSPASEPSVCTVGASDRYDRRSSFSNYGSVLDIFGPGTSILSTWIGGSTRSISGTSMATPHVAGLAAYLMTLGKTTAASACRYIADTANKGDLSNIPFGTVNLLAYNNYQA

For C[C@@H](O)[C@H]1C(=O)N2C(C(=O)O)=C(SCCN=CN)C[C@H]12 [IMP, imipenem], the “VITEK characterization (resistance range)” value (“VITEK characterization” for short) (Acinetobacter baumannii [1]; A. baumannii ACC 00445) was “R”, the “VITEK characterization” value (Acinetobacter baumannii [1]; A. baumannii ACC 00527) was “R” and the “VITEK characterization” value (Acinetobacter baumannii [1]; A. baumannii ACC 00535) was “I”. The “VITEK characterization” value (Acinetobacter baumannii [1]; A. baumannii ACC 01076) was “R”, the “VITEK characterization” value (Acinetobacter baumannii [1]; A. baumannii ACC 01077) was “R” and the “VITEK characterization” value (Acinetobacter baumannii [1]; A. baumannii ATCC 17978) was “S”. The “VITEK characterization” value (Acinetobacter baumannii [1]; A. baumannii ATCC 19606) was “S”, the “VITEK characterization” value (Acinetobacter baumannii [1]; A. baumannii NCTC 13420) was “I” and the “VITEK characterization” value (Escherichia coli; E. coli ACC 01001) was “S”. The “VITEK characterization” value (Escherichia coli; E. coli ATCC 25922) was “S”, the “VITEK characterization” value (Klebsiella pneumoniae; K. pneumoniae ATCC 43816) was “S” and the “VITEK characterization” value (Klebsiella pneumoniae; K. pneumoniae ATCC BAA-1705) was “R”. For the same compound, the “VITEK characterization” value (Staphylococcus aureus; S. aureus ATCC 29213) was “S”, the “VITEK characterization” value (Staphylococcus aureus; S. aureus ATCC 33591) was “R” and the Resistance pattern (A. baumannii BAA-1793) was “R”.

In the case of colistin, the “Concentrations with bactericidal effect” value ([2]; colistin-resistant A. baumannii JMI #1001007, bactericidal = ≥ 3 log10 decrease) was 16 to 32 µg/mL, the “Concentrations with bactericidal effect after 2 h of incubation” value ([2]; colistin-sensitive A. baumannii JMI #1088100, bactericidal = ≥ 3 log10 decrease) was > 0.25 µg/mL and the “Re-growth during the 24 h timeframe” value ([2]; colistin-sensitive A. baumannii JMI #1088100, sampled 0, 2, 4, 8, 24 h) was “No re-growth”. It also gave an MIC colistin value (Acinetobacter baumannii [3]; A. baumannii JMI #1001007 colistin-resistant strain) of 8 µg/mL and an MIC colistin value (Acinetobacter baumannii [3]; A. baumannii JMI #1088100 colistin-sensitive strain) of 0.5 µg/mL.

With CO/N=C(\C(=O)N[C@@H]1C(=O)N2C(C(=O)O)=C(COC(C)=O)CS[C@H]12)c1csc(N)n1 [CTX, cefotaxime] the “VITEK characterization” value (Acinetobacter baumannii [1]; A. baumannii ACC 00445) was “R”, the “VITEK characterization” value (Acinetobacter baumannii [1]; A. baumannii ACC 00527) was “R” and the “VITEK characterization” value (Acinetobacter baumannii [1]; A. baumannii ACC 00535) was “R”. For the same compound, the “VITEK characterization” value (Acinetobacter baumannii [1]; A. baumannii ATCC 17978) was “S”, the “VITEK characterization” value (Acinetobacter baumannii [1]; A. baumannii ATCC 19606) was “I” and the “VITEK characterization” value (Escherichia coli; E. coli ACC 01001) was “S”. For the same compound, the “VITEK characterization” value (Escherichia coli; E. coli ATCC 25922) was “S”, the “VITEK characterization” value (Klebsiella pneumoniae; K. pneumoniae ATCC 43816) was “S” and the “VITEK characterization” value (Klebsiella pneumoniae; K. pneumoniae ATCC BAA-1705) was “R”. For the same compound, the Resistance pattern (A. baumannii BAA-1793) was “R”.

With “KWKLFKKIEKVGQNIRDGIIKAGPAVAVVGQATQIAK-NH2 [Cecropin A]” the “Stability after exposure to Proteinase-K” value (Proteinase-K) was “major degradation”.

In the case of C[S+](C)[O-] [DMSO, dimethyl sulfoxide], the “Cytotoxicity on HEK293T cells” value (HEK293T cells) was > 90%.

For CC(C)(O/N=C(\C(=O)N[C@@H]1C(=O)N2C(C(=O)[O-])=C(C[n+]3ccccc3)CS[C@H]12)c1csc(N)n1)C(=O)O [CAZ, ceftazidime], the “VITEK characterization” value (Acinetobacter baumannii [1]; A. baumannii ACC 00445) was “R”, the “VITEK characterization” value (Acinetobacter baumannii [1]; A. baumannii ACC 00527) was “R” and the “VITEK characterization” value (Acinetobacter baumannii [1]; A. baumannii ACC 00535) was “R”. For the same compound, the “VITEK characterization” value (Acinetobacter baumannii [1]; A. baumannii ATCC 17978) was “S”, the “VITEK characterization” value (Acinetobacter baumannii [1]; A. baumannii ATCC 19606) was “I” and the “VITEK characterization” value (Escherichia coli; E. coli ACC 01001) was “S”. For the same compound, the “VITEK characterization” value (Escherichia coli; E. coli ATCC 25922) was “S”, the “VITEK characterization” value (Klebsiella pneumoniae; K. pneumoniae ATCC 43816) was “S” and the “VITEK characterization” value (Klebsiella pneumoniae; K. pneumoniae ATCC BAA-1705) was “R”. For the same compound, the Resistance pattern (A. baumannii BAA-1793) was “R”.
